Data set [1] is described as follows: Stability of magnesium perphthalate (statement). The format is physicochemical.
The subject of data set [2] is L929 mammalian fibroblasts. Description: MEM toxicity test (USP standard elution cytotoxicity, trypan blue). Further details: key to toxicity, MEM level / MEM Result: 0: No cell lysis - Discrete intracytoplasmic granules; 1: Not more than 20% of cells round and loosely attached - occasional lysed cells present; 2: Not more than 50% of cells round - extensive cell lysis and empty areas between cells; 3: Not more than 70% of the cell layers contain rounded cells and/or lysed; 4: Nearly complete destruction of the cell layer. The format is cell-based. The source says:
In testing the toxicity of compounds of the compositions disclosed in solution, an MEM test procedure is used. The MEM (Minimum Essential Medium) test procedure is employed to evaluate cytoxicity using standard USP (The United States Pharmacopeial Convention) elution assays. A description of the test procedure is provided herein.
The assay provides a means of evaluating extracts of polymeric materials under direct contact conditions. This method is appropriate for high-density materials and for dose-response evaluations.
Media Preparation: 1X MEM media is prepared by mixing 100 mL Eagle's MEM (with Earl's Salts and Sodium Bicarbonate, without L-glutamine), with 10mL serum, 1 mL-glutamine solution, and 0.5 mL antibiotic solution (L-glutamine and antibiotic solutions are purchased at correct concentrations and stored frozen at -20 °C±2). Eagle's
Before use, a 4 ml aliquot of 10X trypsin is diluted 1:9 with 36 ml of Dulbecco's Phosphate Buffered Saline (PBS) to yield a 0.25% solution. Dulbecco's Saline is available from Mediatech Cellgro. Sterile 35 mm diameter petri dishes or 6 well tissue culture plates are used. Sterile serological pipets are employed in the procedure. Sterile absorbent material (e.g. Kay-Drys or similar material) is used. L929 mammalian fibroblasts (ATCC cell line CCL1, NCTC clone 929) are employed.
Overview of Method: Cell cultures are grown to a near confluent monolayer in 6 well plates (the wells are 35mm). After the test, material is extracted under various conditions (i.e. extracting medium, time, temperature) so as to allow evaluation of extract toxicity in accordance with USP procedures. These procedures define methods to be used to extract materials for in vivo or in vitro toxicity evaluations in accordance with United States Pharmacopoeia (USP). The Sodium Chloride Injection extract is diluted with serum-supplemented cell culture medium at 25% extract concentration. Each culture is examined microscopically after 48 hours using trypan blue for the presence of morphological changes, reduction in cell density or cell lysis induced by the test material.
Cell Layer Preparation: The next step is to tryptanize cells. Next, one determines cell density using standard methods to define standard cell biology methods to be used to determine and adjust the concentration of a cell suspension, i.e. cell density. Then, an adjustment is made to yield a standard cell suspension with a density of 250,000 to 350,000 cell/mL in serum supplemented MEM for L929 cells. Seed cells are placed into 6 well plates by pipetting 2 ml of the standard cell suspension into each well. […]
Exposure to Test Extracts: Exposure to test extracts is determined examining a representative prepared cell culture plate using the microscope to observe the cell monolayer for correct confluency. […]

A short description of the next data set: Solubility (statement). The format is physicochemical.

Molecules are shown by their SMILES.

In the case of `O.O.O.O.O.O.O=C([O-])c1ccccc1C(=O)O[O-].[Mg+2]` [magnesium perphthalate, magnesium monoperoxyphthalate hexahydrate], the stability result is listed as “not stable” in data set [1] (in aqueous solution) and “stable” in data set [1] (in solid form). The “toxicity, MEM Test Result level” value in data set [2] (concentrations below 0.5%, generally) was 1 (Not more than 20% of cells round and loosely attached - occasional lysed cells present). The “toxicity, MEM level” value in data set [2] (concentrations of 0.5% and above, with and without saline) came out at 4. Further, in data set [2] (concentrations of about 0.25% and below in a chloride or other halide-containing solution), the toxicity result is given as “not toxic”. In data set [2] (some test results at below 0.5% magnesium perphthalate), the “MEM Result” value came out at 0. In the data set “Solubility (statement)”, the solubility result is given as “freely soluble”.

The record behind these values is patent publication EP1255573B1, “COMPOSITIONs comprising monoperphthalic acid useful for treating contact lens” (Novartis AG, priority 2000, dated 2001).
